Assay in all cases: NCI-60 cell line screen, 48 h
The test system of test [1] is M14.
The subject of test [2] is BT-549.
Test [3] relates to OVCAR-3.
Test [4] relates to HL-60.
Test [5] has as its system NCI-H460.
Test [6] deals with A498.
Test [7] has as its system OVCAR-5.
Test [8] relates to SK-OV-3.
The test system of test [9] is IGROV-1.
Test [10] deals with A549.
The test system of test [11] is KM12.
The subject of test [12] is RPMI-8226.
The test system of test [13] is MDA-MB-231.
Test [14] relates to RXF 393.
For test [15], the system named is OVCAR-4.
Test [16] deals with EKVX.
In test [17] the test system is MCF7.
Test [18] has as its system SK-MEL-28.
Test [19] relates to NCI/ADR-RES.
The test system of test [20] is SK-MEL-2.

The structures appear in SMILES notation.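 A five-concentration, 48-hour dose response in 96-well plates underlies each endpoint, interpolated linearly between surrounding concentrations. Here, GI50 denotes the concentration required for 50% inhibition of growth.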 Calls of active or inactive are those of the source. Rule as the data show it: active = GI50 up to about 1.1 µM and inactive = higher.

As to `CC(O)C1(CNc2cc(Cl)nc(N)n2)CCCCC1` (stereo not given), the GI50 in test [1] was > 100 µM (inactive); in [2] it was 70.1 µM (inactive); in test [3], > 100 µM (inactive); in test [4], 89.7 µM (inactive); in test [5], > 100 µM (inactive); in test [6] it was 39.3 µM (inactive). Further, the GI50 in test [7] is > 100 µM (inactive); in [8] it was > 100 µM (inactive); in test [9], > 100 µM (inactive); in test [10], 77.6 µM (inactive); in test [11], 85.3 µM (inactive); in test [12] it was 48.9 µM (inactive). The GI50 in [13] is > 100 µM (inactive); in [14], > 100 µM (inactive); in [15], 37.3 µM (inactive); in test [16], 58.1 µM (inactive); in [17], 82.2 µM (inactive); in [18] it was > 100 µM (inactive). For the same molecule, the GI50 in [19] is 58.2 µM (inactive); in [20] it was > 100 µM (inactive).

`C=C1C[C@@H]2CC[C@@]34CC5O[C@H]6C(O[C@H]7CC[C@H](CC(=O)O[C@@H]8[C@@H](C)[C@@H]9O[C@@H]%10C[C@]%11(C[C@@H]%12O[C@]%13(C[C@H](C)[C@@H]%14O[C@@H]%15CC(C(O)CO)O[C@@H]%15C[C@@H]%14O%13)C[C@H](C)[C@@H]%12O%11)O[C@@H]%10C[C@@H]9O[C@H]8CC8O[C@@H](CC[C@@H]1O2)C[C@@H](C)C8(O)CO)O[C@@H]7[C@@H]6O3)[C@H]5O4` (stereo not given in full): the GI50 is > 0.944 µM (active) in test [1]; 0.00891 µM (active) in [2]; 0.594 µM (active) in test [3]; > 1 µM (active) in test [4]; 0.53 µM (active) in test [5]; > 1 µM (active) in test [6]. The GI50 is > 1 µM (active) in [7]; > 1 µM (active) in test [8]; 0.516 µM (active) in test [9]; > 0.891 µM (active) in [10]; > 0.726 µM (active) in [11]; > 0.849 µM (active) in [12]. Moreover, the GI50 in [13] is > 1 µM (active); in [14], 0.516 µM (active); in test [15] it was > 1 µM (active); in test [16] it was > 1 µM (active); in test [17], 0.579 µM (active); in test [18], > 0.959 µM (active). Besides, the GI50 is > 1 µM (active) in [19] and > 0.859 µM (active) in test [20].

In the case of `O=C1OC(c2ccccc2)=N/C1=C\c1ccc([N+](=O)[O-])cc1`, the GI50 in [1] is > 100 µM (inactive); in test [2], 15.3 µM (inactive); in [3], 57.4 µM (inactive); in test [4], 24.4 µM (inactive); in [5], > 100 µM (inactive); in [6] it was 35.4 µM (inactive). Further, the GI50 in [7] is > 100 µM (inactive); in test [8] it was 34.7 µM (inactive); in test [9], 27.9 µM (inactive); in [10], 82 µM (inactive); in test [11], 54.8 µM (inactive); in test [12], 30.2 µM (inactive). Besides, the GI50 was 44.6 µM (inactive) in test [13]; 32.9 µM (inactive) in test [14]; 34.5 µM (inactive) in [15]; 36 µM (inactive) in test [16]; 60 µM (inactive) in test [17]; > 100 µM (inactive) in test [18]. Also, the values for the GI50 in test [19] and in test [20] were 8.97 µM (inactive) and 27.4 µM (inactive), respectively.

In the case of `CCCCCOC(=O)c1cc2cc(CCl)ccc2oc1=O`, the GI50 in [1] was 1.51 µM (inactive); in test [2], 11.9 µM (inactive); in test [3], 2.82 µM (inactive); in [4] it was 0.552 µM (active); in test [5], 17.2 µM (inactive); in test [6] it was 2.44 µM (inactive). In addition, the GI50 in test [7] was 14.4 µM (inactive); in test [8], 16.9 µM (inactive); in test [9], 10.3 µM (inactive); in test [10] it was 1.97 µM (inactive); in [11] it was 13.6 µM (inactive); in test [12], 18.9 µM (inactive). For the same molecule, the GI50 in test [13] was 16.5 µM (inactive); in test [14] it was 2.18 µM (inactive); in test [15], 4.13 µM (inactive); in test [16], 3.37 µM (inactive); in test [17], 10.4 µM (inactive); in test [18], 6.49 µM (inactive). In addition, the GI50 in [19] was 17.3 µM (inactive); in [20], 0.466 µM (active).

On to `CN(CCC#N)c1ccc(/C=C2\SC(=S)NC2=O)cc1`, for which the GI50 is 67.6 µM (inactive) in test [1]; 21.7 µM (inactive) in [2]; 27.7 µM (inactive) in [3]; 24.3 µM (inactive) in test [4]; 25.9 µM (inactive) in [5]; 30.1 µM (inactive) in test [6]. Also, the GI50 in [7] was > 100 µM (inactive); in test [8] it was 71.9 µM (inactive); in test [9] it was > 100 µM (inactive); in test [10], 34.1 µM (inactive); in test [11], 40.7 µM (inactive); in [12] it was 34 µM (inactive). For the same molecule, the GI50 in test [13] is 56 µM (inactive); in test [14] it was 23.6 µM (inactive); in [15], 62.8 µM (inactive); in test [16] it was > 100 µM (inactive); in test [17], 46.6 µM (inactive); in test [18], 40.1 µM (inactive). In addition, the GI50 in test [19] is > 100 µM (inactive); in test [20], 35 µM (inactive).

`CCC(c1c[nH]c2ccc(Br)cc12)c1c[nH]c2ccc(Br)cc12`: the GI50 was 3.22 µM (inactive) in test [1]; 10.3 µM (inactive) in test [2]; 3.96 µM (inactive) in [3]; 4.39 µM (inactive) in [4]; 2.63 µM (inactive) in [5]; 3.79 µM (inactive) in test [6]. Moreover, the GI50 was 3.78 µM (inactive) in [7]; 11.9 µM (inactive) in [8]; 4.41 µM (inactive) in test [9]; 3.72 µM (inactive) in test [10]; 1.97 µM (inactive) in [11]; 2.5 µM (inactive) in [12]. Moreover, the GI50 in test [13] is 11.1 µM (inactive); in test [14] it was 2.32 µM (inactive); in test [15], 2.75 µM (inactive); in [16], 5.14 µM (inactive); in [17], 3.98 µM (inactive); in [18] it was 11.5 µM (inactive). Moreover, the GI50 in test [19] is 3.08 µM (inactive); in test [20], 10.6 µM (inactive).

Take `CN(C)CCCNc1ccc2ncn3c4ccc(O)cc4c(=O)c1c23`: the GI50 is 1.65 µM (inactive) in test [1]; 17.3 µM (inactive) in [2]; 3.58 µM (inactive) in test [3]; 0.277 µM (active) in [4]; 0.105 µM (active) in test [5]; 0.697 µM (active) in test [6]. Also, the GI50 in test [7] was 3.03 µM (inactive); in [8], 0.321 µM (active); in test [9], 0.577 µM (active); in [10], 0.0721 µM (active); in [11], 3.14 µM (inactive); in [12] it was 1.58 µM (inactive). For the same molecule, the GI50 in test [13] was 7.46 µM (inactive); in [14], 0.439 µM (active); in test [15], 1.55 µM (inactive); in test [16], 4.71 µM (inactive); in test [17] it was 0.0964 µM (active); in test [18] it was 4.71 µM (inactive). For the same molecule, the GI50 in test [19] is 12.4 µM (inactive); in test [20], 6.21 µM (inactive).

In the case of `CCOC(=O)/C(C(=O)NC(C)C)=C(/N)N1CCOCC1`, the GI50 in test [1], in [2], in test [3], in test [4], in test [5] and in [6] was > 100 µM (inactive) throughout. Further, the GI50 in [7], in [8], in test [9], in test [10], in test [11] and in [12] was > 100 µM (inactive) throughout. The GI50 in test [13], in test [14], in test [15], in [16], in test [17] and in [18] was > 100 µM (inactive) in each case. Also, the GI50 in [19] and in test [20] was > 100 µM (inactive) throughout.

The record behind these values is ChEMBL document CHEMBL1201862, “PubChem BioAssay data set” (2004).
